# pIC50: −log10 of the molar value.
# Legend:
# CNV progression = assay: In vivo choroidal neovascularization (CNV) model, laser-induced, intravitreal injection; design: species or system Male Brown-Norway rats; conditions: rat; for Inhibition of CNV progression / inhibition in vivo at 10 nmol/eye: 10 nmol/eye injected on Day 3, CNV area on Day 10, vs vehicle; for inhibition in vivo at 10 nmol/eye / inhibition in vivo at 3 nmol/eye: 240 h; for inhibition in vivo at 3 nmol/eye: 3 nmol/eye injected on Day 3, CNV area on Day 10, vs vehicle
# Description: This test measures the capacity of compounds to inhibit CNV progression. CNV is the main cause of severe vision loss in patients suffering from age-related macular degeneration (AMD).
# Male Brown-Norway rats (Japan Clea Co., Ltd.) were used in these studies.
# Rats were anesthetized by intraperitoneal injection of pentobarbital, and the right pupil was dilated with 0.5% tropicamide and 0.5% phenylephrine hydrochloride. The right eye received 6 laser burns between retinal vessels using a slit lamp delivery system of Green laser Photocoagulator (Nidex Inc., Japan), and microscope slide glass with Healon™ (AMO Inc) used as a contact lens. The laser power was 100 or 200 mW for 0.1 second and spot diameter was 100 μm. At the time of laser burn, bubble production was observed, which is an indication of rupture of Bruch's membrane which is important for CNV generation.
# Rats were divided into the groups based on their body weight using SAS software (SAS institute Japan, R8.1) after laser irradiation (Day 0). After animals were anesthetized, and the right pupil dilated (as above mentioned), the right eye of the animal received the compound or vehicle by an injection (10 μL/eye) at doses of 10 or 3 nmol/eye on Day 3. The compounds were dissolved or suspended in CBS, PBS, or other adequate vehicles before injection.
# On Day 10, the animals were anesthetized with ether, and high molecular weight fluorescein isothiocyanate (FITC)-dextran (SIGMA, 2×10^6 MW) was injected via a tail vein (20 mg/rat). About 30 min after FITC-dextran injection, animals were euthanized by ether or carbon dioxide, and the eyes were removed and fixed with 10% formaline neutral buffer solution. After over 1 hour of fixation, RPE-choroid-sclera flat mounts were obtained by removing cornea, lens and retina from the eyeballs. The flat mounts were mounted in 50% glycerol on a microscope slide, and the portion burned by laser was photographed using a fluorescence microscope (Nikon Corporation, excitation filter:465-495 nm, absorption filter:515-555 nm). The CNV area was obtained by measurement of hyper-fluorescence area observed on the photograph using Scion image.
# The average CNV area of 6 burns was used as an individual value of CNV area, and the average CNV area of compound treated group was compared with that of the vehicle-treated group.
# VEGFR/KDR = molecular target: T1, VEGFR/KDR (Homo sapiens, UniProt P35968); assay: VEGFR/KDR kinase inhibition, DELFIA assay; assay type: biochemical; conditions: ATP 0.6 uM (2x Km), enzyme 5 nM
# T1 construct: made in house; host or cells: Sf9 cells (Spodoptera frugiperda), baculovirus
# T1 sequence (P35968 806-1356): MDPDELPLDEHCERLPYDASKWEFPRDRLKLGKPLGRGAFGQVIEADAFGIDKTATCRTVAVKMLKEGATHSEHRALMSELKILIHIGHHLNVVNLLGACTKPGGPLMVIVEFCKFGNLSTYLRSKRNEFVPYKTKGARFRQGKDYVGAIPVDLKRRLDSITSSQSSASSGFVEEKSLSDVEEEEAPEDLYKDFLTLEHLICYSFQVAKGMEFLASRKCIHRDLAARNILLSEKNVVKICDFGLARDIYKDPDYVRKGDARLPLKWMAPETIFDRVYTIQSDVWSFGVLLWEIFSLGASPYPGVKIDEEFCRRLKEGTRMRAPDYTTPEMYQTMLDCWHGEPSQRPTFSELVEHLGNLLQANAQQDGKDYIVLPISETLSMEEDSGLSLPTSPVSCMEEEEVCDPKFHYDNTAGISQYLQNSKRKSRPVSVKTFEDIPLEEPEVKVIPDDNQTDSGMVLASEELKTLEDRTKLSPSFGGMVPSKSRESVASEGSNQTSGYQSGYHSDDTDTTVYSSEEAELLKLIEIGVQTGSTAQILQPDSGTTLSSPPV
# How it was run: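 Enzyme (5 nM) pre-incubated 4 min on ice with inhibitor and Mg-ATP (0.6 uM, 2× Km), then reacted 10-30 min at 30° C on immobilized poly(Glu4,Tyr). EDTA-quenched phosphotyrosine detected with Europium-labeled antibody by time-resolved fluorescence; IC50 from concentration series.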
pIC50 (VEGFR/KDR),Compound,Inhibition of CNV progression (CNV progression),inhibition in vivo at 10 nmol/eye (CNV progression),inhibition in vivo at 3 nmol/eye (CNV progression)
–,"2-cyclopropyl-N-(3-fluoro-4-(2-(5-((N- (2-methoxyethyl)-acetamido)methyl)pyridin-2- yl)thieno[3,2-b]-pyridin-7-yloxy)phenyl)-acetamide [Compound 42]",A (greater than or equal to 60% inhibition),–,–
> 7.30,"COCCN(Cc1ccc(-c2cc3nccc(Oc4ccc(NC(=O)NC5CC5)cc4F)c3s2)nc1)C(N)=O [Compound 5, N-[3-((6-(7-(4-(3-cyclopropylureido)-2-fluorophenoxy)thieno[3,2-b]pyridin-2-yl)pyridin-3-yl)methyl)]-N-[3-(2-methoxyethyl)]urea]",–,40 to 60%,–
> 7.30,"COCCN(C=N)Cc1ccc(-c2cc3nccc(Oc4ccc(NC(=O)NC5CC5)cc4F)c3s2)nc1 [Compound 7, N-((6-(7-(4-(3-cyclopropylureido)-2-fluorophenoxy)thieno[3,2-b]pyridin-2-yl)pyridin-3-yl)methyl)-N-(2-methoxyethyl)formimidamide]",–,≥ 60%,–
> 7.30,"O=C(Nc1ccc(Oc2ccnc3cc(-c4ccc(CNCCO)cn4)sc23)c(F)c1)NC1CC1 [Compound 9, 1-cyclopropyl-3-(3-fluoro-4-(2-(5-((2-hydroxyethylamino)methyl)pyridin-2-yl)-thieno[3,2-b]pyridin-7-yloxy)phenyl)urea]",–,≥ 60%,–
> 7.30,"COCCNCc1ccc(-c2cc3nccc(Oc4ccc(NC(=O)NC5CC5)c(F)c4F)c3s2)nc1 [Compound 25, 1-cyclopropyl-3-(2,3-difluoro-4-(2-(5-((2-methoxyethylamino)methyl)pyridin-2-yl)thieno[3,2-b]pyridin-7-yloxy)phenyl)urea]",–,≥ 60%,–
> 7.30,"CCNC(=O)N(CCOCCOCCOCCOC)Cc1ccc(-c2cc3nccc(Oc4ccc(NC(=O)NC5CC5)cc4F)c3s2)nc1 [Compound 36, N-[3-((6-(7-(4-(3-cyclopropylureido)-2-fluorophenoxy)-thieno[3,2-b]-pyridin-2-yl)pyridin-3-yl)methyl)]-N-(1-ethyl)-N-[3-(2,5,8,11-tetraoxatridecan-13-yl)]urea]",–,40 to 60%,–
> 7.30,"COCCN(CCc1ccc(-c2cc3nccc(Oc4ccc(NC(=O)NC5CC5)cc4F)c3s2)nc1)C(C)=O [Compound 41, N-(2-(6-(7-(4-(3-cyclopropylureido)-2-fluorophcnoxy)-thieno[3,2-b]-pyridin-2-yl)pyridin-3-yl)ethyl)-N-(2-methoxyethyl)-acetamide]",–,40 to 60%,–
> 7.30,"CC(=O)N(CCS(C)(=O)=O)Cc1ccc(-c2cc3nccc(Oc4ccc(NC(=O)NC5CC5)cc4F)c3s2)nc1 [Compound 43, N-((6-(7-(4-(3-cyclopropylureido)-2-fluorophenoxy)thieno[3,2-b]pyridin-2-yi)pyridin-3-yl)methyl)-N-(2-(methylsulfonyl)ethyl)acetamide]",–,40 to 60%,–
> 7.30,COCCOCCOCCOCCN(Cc1ccc(-c2cc3nccc(Oc4ccc(NC(=O)NC5CC5)cc4F)c3s2)nc1)C(=O)CO [Compound 45],–,40 to 60%,–
> 7.30,"O=C(Nc1ccc(Oc2ccnc3cc(-c4ccc(CN5CCNCC5)cn4)sc23)c(F)c1)NC1CC1 [Compound 49, 1-cyclopropyl-3-(3-fluoro-4-(2-(5-(piperazin-1-ylmethyl)pyridin-2-yl)thieno[3,2-b]-pyridin-7-yloxy)phenyl)urea]",–,≥ 60%,–
> 7.30,"CN1CCN(Cc2ccc(-c3cc4nccc(Oc5ccc(NC(=O)NC6CC6)cc5F)c4s3)nc2)CC1 [Compound 51, 1-cyclopropyl-3-(3-fluoro-4-(2-(5-((4-methylpiperazin-1-yl)methyl)pyridin-2-yl)thieno[3,2-b]-pyridin-7-yloxy)phenyl)urea]",–,≥ 60%,–
> 7.30,"O=C(Nc1ccc(Oc2ccnc3cc(-c4ccc(CN5CCN(CCO)CC5)cn4)sc23)c(F)c1)NC1CC1 [Compound 55, 1-cyclopropyl-3-(3-fluoro-4-(2-(5-((4-(2-hydroxyethyl)piperazin-l-yl)methyl)pyridin-2-yl)thieno[3,2-b]-pyridin-7-yloxy)phenyl)urea]",–,40 to 60%,–
> 7.30,"CN(C)C(=O)CCN1CCN(Cc2ccc(-c3cc4nccc(Oc5ccc(NC(=O)NC6CC6)cc5F)c4s3)nc2)CC1 [Compound 83, 3-(4-((6-(7-(4-(3-cyclopropylureido)-2-luorophenoxy)thieno-[3,2-b]pyridin-2-yl)pyridin-3-yl)melhyl)piperazin-l-yl)-N,N-dimethyl-propanamide]",–,40 to 60%,–
> 7.30,"COCCN(Cc1ccc(-c2cc3nccc(Oc4ccc(NC(=O)NC5CC5)cc4F)c3s2)nc1)C(=O)[C@H](C)O [Compound 89, (S)-N-((6-(7-(4-(3-cyclopropylureido)-2-fluorophenoxy)thieno[3,2-b]pyridin-2-yl)pyridin-3-yl)methyl)-2-hydroxy-N-(2-methoxyethyl)propanamide]",–,≥ 60%,–
> 7.30,"COCCN(Cc1ccc(-c2cc3nccc(Oc4ccc(NC(=O)NC5CC5)cc4F)c3s2)nc1)C(=O)CS(C)(=O)=O [Compound 90, N-((6-(7-(4-(3-cyclopropylureido)-2-fluorophenoxy)thieno[3,2-b]pyridin-2-yl)pyridin-3-yl)methyl)-N-(2-methoxyethyl)-2-(methylsulfonyl)acetamide]",–,≥ 60%,–
> 7.30,"Cn1c(CN2CCCC2=O)cnc1-c1cc2nccc(Oc3ccc(NC(=O)NC4CC4)cc3F)c2s1 [Compound 137, 1-cyclopropyl-3-(3-fluoro-4-(2-(1-methyl-5-((2-oxopyrrolidin-1-yl)methyl)-1H-imidazol-2-yl)thieno[3,2-b]pyridin-7-yloxy)phenyl)urea]",–,40 to 60%,–
> 7.30,"O=C(Nc1ccc(Oc2ccnc3cc(-c4ccc(CN5CCCS5(=O)=O)cn4)sc23)c(F)c1)NC1CC1 [Compound 142, 1-cyclopropyl-3-(3-fluoro-4-(2-(5-(2,2-dioxo-2-thiapyrrolidin-1-ylmethyl)pyridin-2-yl)thieno[3,2-b]pyridin-7-yloxy)phenyl)urea]",–,40 to 60%,–
> 7.30,"CN1CCN(CCn2cc(-c3cc4nccc(Oc5ccc(NC(=O)NC6CC6)cc5F)c4s3)cn2)CC1 [Compound 154, 1-cyclopropyl-3-(3-fluoro-4-(2-(1-(2-(4-methylpiperazin-1-yl)ethyl)-1H-pyrazol-4-yl)thieno[3,2-b]pyridin-7-yloxy)phenyl)urea]",–,–,40 to 60%
> 7.30,"CC(C)N(CCN1CCN(C(=O)c2ccc(-c3cc4nccc(Oc5ccc(NC(=O)NC6CC6)cc5F)c4s3)nc2)CC1)C(C)C [Compound 230, 1-cyclopropyl-3-(4-(2-(5-(4-(2-(diisopropylamino)ethyl)piperazine-1-carbonyl)pyridin-2-yl)thieno[3,2-b]pyridin-7-yloxy)-3-fluorophenyl)urea]",–,–,40 to 60%
–,"(S)-1-(4-(2-(5-((3-amino-2-oxopyrrolidin-1-yl)methyl)pyridin-2-yl)thieno[3,2-b]pyridin-7-yloxy)-3-fluorophenyl)-3-cyclopropylurea [Compound 108]",A (greater than or equal to 60% inhibition),–,–
–,"N-((6-(7-(4-(3-cyclopropylureido)-2-fluorophenoxy)thieno[3,2-b]pyridin-2-yl)pyridin-3-yl)methyl)-N-(2-methoxyethyl)formimidamide [Compound 7]",B (≧40% to <60% inhibition),–,–

Compound,pIC50 (VEGFR/KDR),Inhibition of CNV progression (CNV progression),inhibition in vivo at 10 nmol/eye (CNV progression),inhibition in vivo at 3 nmol/eye (CNV progression)
"CNC(=O)N(CCOC)Cc1ccc(-c2cc3nccc(Oc4ccc(NC(=O)NC5CC5)cc4F)c3s2)nc1 [Compound 3, N-[3-((6-(7-(4-(3-cyclopropylureido)-2-fluorophenoxy)thieno[3,2-b]pyridin-2-yl)pyridin-3-yl)methyl)]-N-(1-methyl)-N-[3-(2-methoxyethyl)]urea]",> 7.30,A (greater than or equal to 60% inhibition),–,–
